Measured values as given in ChEMBL document CHEMBL5390218, “Benzimidazole derivatives as tubulin polymerization inhibitors: Design, synthesis and in vitro cytotoxicity studies” (Bioorg Med Chem Lett, 2023).
Active and inactive are the calls of the source. The rule behind the calls is not given here.

Columns and labels:
SK-MEL-28 [1] = assay: Induction of mitochondrial membrane potential depolarization in human SK-MEL-28 cells assessed as J-monomer level by measuring green fluorescence intensity at 5 uM incubated for 48 hrs by JC-1 staining based analysis (reference value: 0.8%); assay type: functional
SK-MEL-28 [2] = assay: Induction of mitochondrial membrane potential changes in human SK-MEL-28 cells assessed as J-aggregate level by measuring red fluorescence intensity at 2.5 uM incubated for 48 hrs by JC-1 staining based analysis (reference value: 98.9%); assay type: functional
SK-MEL-28 [3] = assay: Induction of apoptosis in human SK-MEL-28 cells assessed as necrotic cells at 5 uM incubated for 24 hrs by Annexin V-FITC/PI staining based flow cytometry analysis (reference value: 0.1%); assay type: functional
SK-MEL-28 [4] = assay: Induction of morphological changes in human SK-MEL-28 cells assessed as membrane blebbing by ethidium bromide/acridine orange staining based analysis; assay type: functional, cell-based; conditions: dose 1-5 µM
SK-MEL-28 [5] = assay: Induction of morphological changes in human SK-MEL-28 cells assessed as bright fragmented nuclei at 1 to 5 uM measured after 48 hrs DAPI staining based analysis; assay type: functional, cell-based; conditions: dose 1-5 µM
Tubulin (Homo sapiens) [6] = target: T1, Tubulin (Homo sapiens) (UniProt P68371+Q9H4B7+P0DPH7+P68366+Q13509+Q71U36+P04350+Q3ZCM7+P07437+P68363+Q9BQE3+Q6PEY2+Q13885+Q9BVA1+Q9BUF5); assay: Inhibition of tubulin polymerization (unknown origin) at 6 uM incubated for 1 hr relative to control; assay type: protein-complex assay
SK-MEL-28 [7] = assay: Inhibition of cell migration in human SK-MEL-28 cells at 1 to 5 uM incubated for 0 to 48 hrs by phase-contrast microscopy; assay type: functional, cell-based; conditions: dose 1-5 µM, time 0-48 hrs
SK-MEL-28 [8] = assay: Induction of morphological changes in human SK-MEL-28 cells assessed as bright pyknotic nuclei at 1 to 5 uM measured after 48 hrs DAPI staining based analysis; assay type: functional, cell-based; conditions: dose 1-5 µM
SK-MEL-28 [9] = assay: Induction of morphological changes in human SK-MEL-28 cells assessed as cell shrinkage by ethidium bromide/acridine orange staining based analysis; assay type: functional; conditions: dose 1-5 µM
SK-MEL-28 [10] = assay: Induction of cell cycle arrest in human SK-MEL-28 cells assessed as accumulation of cells at G2 phase at 1 uM measured after 48 hrs by PI staining based flow cytometry (reference value: 9.17%); assay type: functional
SK-MEL-28 [11] = assay: Induction of apoptosis in human SK-MEL-28 cells assessed as early apoptotic cells at 5 uM incubated for 24 hrs by Annexin V-FITC/PI dual staining based flow cytometry analysis (reference value: 0.0%); assay type: functional
SK-MEL-28 [12] = assay: Induction of apoptosis in human SK-MEL-28 cells assessed as live cells at 1 uM incubated for 24 hrs by Annexin V-FITC/PI dual staining based flow cytometry analysis (reference value: 99.9%); assay type: functional
SK-MEL-28 [13] = assay: Induction of apoptosis in human SK-MEL-28 cells assessed as necrotic cells at 2.5 uM incubated for 24 hrs by Annexin V-FITC/PI staining based flow cytometry analysis (reference value: 0.1%); assay type: functional
SK-MEL-28 [14] = assay: Inhibition of cell migration in human SK-MEL-28 cells at 1 to 5 uM incubated for 0 to 48 hrs by wound healing assay; assay type: functional, cell-based; conditions: dose 1-5 µM, time 0-48 hrs
SK-MEL-28 [15] = assay: Induction of cell cycle arrest in human SK-MEL-28 cells assessed as accumulation of cells at S phase at 5 uM measured after 48 hrs by PI staining based flow cytometry (reference value: 16.5%); assay type: functional
Tubulin (Homo sapiens) [16] = target: T1, Tubulin (Homo sapiens); assay: Inhibition of tubulin polymerization (unknown origin) at 3 uM incubated for 1 hr relative to control; assay type: protein-complex assay
SK-MEL-28 [17] = assay: Induction of morphological changes in human SK-MEL-28 cells assessed as production of apoptotic bodies by ethidium bromide/acridine orange staining based analysis; assay type: functional, cell-based; conditions: dose 1-5 µM
SK-MEL-28 [18] = assay: Induction of apoptosis in human SK-MEL-28 cells assessed as late apoptotic cells at 5 uM incubated for 24 hrs by Annexin V-FITC/PI dual staining based flow cytometry analysis (reference value: 0.1%); assay type: functional
SK-MEL-28 [19] = assay: Induction of cell cycle arrest in human SK-MEL-28 cells assessed as accumulation of cells at S phase at 1 uM measured after 48 hrs by PI staining based flow cytometry (reference value: 16.5%); assay type: functional
HCT-116 = assay: Anticancer activity against human HCT-116 cells assessed as inhibition in cell growth measured after 72 hrs by MTT assay; assay type: functional, cell-based; conditions: HCT-116, 72 h
SK-MEL-28 [20] = assay: Induction of apoptosis in human SK-MEL-28 cells assessed as necrotic cells at 1 uM incubated for 24 hrs by Annexin V-FITC/PI staining based flow cytometry analysis (reference value: 0.1%); assay type: functional
SK-MEL-28 [21] = assay: Induction of apoptosis in human SK-MEL-28 cells assessed as live cells at 2.5 uM incubated for 24 hrs by Annexin V-FITC/PI dual staining based flow cytometry analysis (reference value: 99.9%); assay type: functional
SK-MEL-28 [22] = assay: Induction of cell cycle arrest in human SK-MEL-28 cells assessed as accumulation of cells at G0-G1 phase at 2.5 uM measured after 48 hrs by PI staining based flow cytometry (reference value: 74.32%); assay type: functional
SK-MEL-28 [23] = assay: Induction of morphological changes in human SK-MEL-28 cells assessed as chromatin condensation by ethidium bromide/acridine orange staining based analysis; assay type: functional, cell-based; conditions: dose 1-5 µM
SK-MEL-28 [24] = assay: Induction of cell cycle arrest in human SK-MEL-28 cells assessed as accumulation of cells at G0-G1 phase at 1 uM measured after 48 hrs by PI staining based flow cytometry (reference value: 74.32%); assay type: functional
SK-MEL-28 [25] = assay: Anticancer activity against human SK-MEL-28 cells assessed as inhibition in cell growth measured after 72 hrs by MTT assay; assay type: functional, cell-based; conditions: SK-MEL-28, 72 h
SK-MEL-28 [26] = assay: Induction of apoptosis in human SK-MEL-28 cells assessed as early apoptotic cells at 1 uM incubated for 24 hrs by Annexin V-FITC/PI dual staining based flow cytometry analysis (reference value: 0.0%); assay type: functional
SK-MEL-28 [27] = assay: Induction of apoptosis in human SK-MEL-28 cells assessed as late apoptotic cells at 1 uM incubated for 24 hrs by Annexin V-FITC/PI dual staining based flow cytometry analysis (reference value: 0.1%); assay type: functional
Tubulin (Homo sapiens) [28] = target: T1, Tubulin (Homo sapiens); assay: (§1) Inhibition of tubulin polymerization (unknown origin) incubated for 1 hr; assay type: protein-complex assay; conditions: dose 0.75-12 µM
Tubulin = assay: as §1; assay type: protein-complex assay, Homo sapiens
SK-MEL-28 [29] = assay: Induction of cell cycle arrest in human SK-MEL-28 cells assessed as accumulation of cells at G0-G1 phase at 5 uM measured after 48 hrs by PI staining based flow cytometry (reference value: 74.32%); assay type: functional
[30] = Selectivity index, ratio of IC50 for NRK-52E cells to ratio of IC50 for human MCF7 cells; assay type: toxicity; conditions: rat (NRK-52E), NRK-52E cells versus MCF7 cells, read-out: Selectivity Index
A549 = assay: Anticancer activity against human A549 cells assessed as inhibition in cell growth measured after 72 hrs by MTT assay; assay type: functional, cell-based; conditions: A549, 72 h
SK-MEL-28 [31] = assay: Induction of mitochondrial membrane potential depolarization in human SK-MEL-28 cells assessed as J-monomer level by measuring green fluorescence intensity at 2.5 uM incubated for 48 hrs by JC-1 staining based analysis (reference value: 0.8%); assay type: functional
SK-MEL-28 [32] = assay: Induction of cell cycle arrest in human SK-MEL-28 cells assessed as accumulation of cells at G2 phase at 5 uM measured after 48 hrs by PI staining based flow cytometry (reference value: 9.17%); assay type: functional

inhibition (Tubulin (Homo sapiens) [6]): 52.4%
inhibition (Tubulin (Homo sapiens) [16]): 47.4%
IC50 (HCT-116): 6.98 µM
IC50 (SK-MEL-28 [25]): 2.69 µM
inhibition (Tubulin (Homo sapiens) [28]): Dose-Dependent Effect
IC50 (Tubulin): 5.65 µM
IC50 (A549): 3.84 µM
SMILES: COc1cc(-c2nc3cc(F)ccc3[nH]2)ccc1OCC(=O)N1CCc2ccccc21
Activity (SK-MEL-28 [1]): 14.9%
Activity (SK-MEL-28 [2]): 96.7%
Activity (SK-MEL-28 [3]): 13%
Activity (SK-MEL-28 [4]): Dose-Dependent Effect
Activity (SK-MEL-28 [5]): Active
inhibition (SK-MEL-28 [7]): Active
Activity (SK-MEL-28 [8]): Active
Activity (SK-MEL-28 [9]): Dose-Dependent Effect
Activity (SK-MEL-28 [10]): 15.96%
Activity (SK-MEL-28 [11]): 1.3%
Activity (SK-MEL-28 [12]): 28.5%
Activity (SK-MEL-28 [13]): 1%
inhibition (SK-MEL-28 [14]): Active
Activity (SK-MEL-28 [15]): 25.66%
Activity (SK-MEL-28 [17]): Dose-Dependent Effect
Activity (SK-MEL-28 [18]): 35.1%
Activity (SK-MEL-28 [19]): 22.3%
Activity (SK-MEL-28 [20]): 0%
Activity (SK-MEL-28 [21]): 52.5%
Activity (SK-MEL-28 [22]): 51.45%
Activity (SK-MEL-28 [23]): Dose-Dependent Effect
Activity (SK-MEL-28 [24]): 61.71%
Activity (SK-MEL-28 [26]): 60.8%
Activity (SK-MEL-28 [27]): 10.7%
Activity (SK-MEL-28 [29]): 49.28%
selectivity ratio [30]: 3
Activity (SK-MEL-28 [31]): 3.2%
Activity (SK-MEL-28 [32]): 26.05%
